Reference: US11098046B2, “Macrocyclic compounds as TRK kinase inhibitors and uses thereof” (ANGEX PHARMACEUTICAL, INC., priority 2017, dated 2021)

Target: TRK A (Homo sapiens (Human), UniProt P04629)
Assay: HotSpot assay platform, radiometric kinase inhibition
Format: biochemical
Details: 100 μM ATP, class symbol
Method: The HotSpot assay platform was used to measure kinase/inhibitor interactions as described in Anastassiadis et al., Nat Biotechnol. 29:1039-45, 2011. In brief, for each reaction, kinase and substrate were mixed in a buffer containing 20 mM HEPES (pH 7.5), 10 mM MgCl2, 1 mM EGTA, 0.02% Brij35, 0.02 mg/mL BSA, 0.1 mM Na3VO4, 2 mM DTT, and 1% DMSO. Compounds were then added to each reaction mixture. After a 20-min incubation, ATP (Sigma-Aldrich) and [γ-33P] ATP (PerkinElmer) were added at a final total concentration of 100 μM. Reactions were carried out at room temperature for 2 h and spotted onto P81 ion exchange cellulose chromatography paper (Whatman). Filter paper was washed in 0.75% phosphoric acid to remove unincorporated ATP. The percent remaining kinase activity relative to a vehicle-containing (DMSO) kinase reaction was calculated for each kinase/inhibitor pair. Outliers were identified and removed as described in Anastassiadis et al., Nat Biotechnol. 29:1039-45, 2011. IC50 values were calculated using Prism 5 (GraphPad).

Sequence of TRK A (P04629 33-796): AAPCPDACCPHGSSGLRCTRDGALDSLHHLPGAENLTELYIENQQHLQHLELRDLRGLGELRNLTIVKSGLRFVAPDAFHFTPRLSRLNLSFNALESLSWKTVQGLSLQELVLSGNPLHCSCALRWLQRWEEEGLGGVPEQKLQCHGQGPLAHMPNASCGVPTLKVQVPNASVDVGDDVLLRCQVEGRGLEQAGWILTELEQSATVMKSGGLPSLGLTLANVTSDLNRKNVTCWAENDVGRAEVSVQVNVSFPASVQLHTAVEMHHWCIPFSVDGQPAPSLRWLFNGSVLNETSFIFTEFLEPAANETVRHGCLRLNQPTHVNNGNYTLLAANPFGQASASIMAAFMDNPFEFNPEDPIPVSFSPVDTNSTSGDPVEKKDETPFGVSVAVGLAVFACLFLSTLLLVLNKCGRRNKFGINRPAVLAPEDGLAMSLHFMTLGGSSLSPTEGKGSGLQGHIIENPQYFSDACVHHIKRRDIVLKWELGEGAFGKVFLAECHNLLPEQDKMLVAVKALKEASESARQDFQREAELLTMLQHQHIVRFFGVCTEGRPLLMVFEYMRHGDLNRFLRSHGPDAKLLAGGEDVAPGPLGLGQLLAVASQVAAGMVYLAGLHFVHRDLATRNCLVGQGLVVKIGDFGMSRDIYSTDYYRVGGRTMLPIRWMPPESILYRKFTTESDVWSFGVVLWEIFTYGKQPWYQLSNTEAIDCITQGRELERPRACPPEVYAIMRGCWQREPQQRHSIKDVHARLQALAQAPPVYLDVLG

## CC1(C)CCc2ncc(F)cc2C2CCCN2c2ccn3ncc(c3n2)NC1=O (racemic) [Compound 8-8]
  IC50: 100 to 1000 nM

## C[C@@H]1CCc2ncc(F)cc2N2CCC[C@H]2c2ccn3ncc(c3n2)C(=O)N1 (single isomer, unassigned) [Compound 16-10]
  IC50: > 1000 nM

## C[C@@H]1CCc2ncc(F)cc2N2CCC[C@@H]2c2ccn3ncc(c3n2)C(=O)N1 (single isomer, unassigned) [Compound 16-11]
  IC50: > 1000 nM

## C=C1c2ncc(F)cc2[C@H]2[C@@H]3C[C@@H]3CN2c2ccn3ncc(c3n2)C(=O)N[C@@H]1C (single isomer, unassigned) [Compound 21-4]
  IC50: < 100 nM

## C=C1c2ncc(F)cc2[C@@H]2[C@H]3C[C@H]3CN2c2ccn3ncc(c3n2)C(=O)N[C@@H]1C (single isomer, unassigned) [Compound 21-5]
  IC50: 100 to 1000 nM

## C[C@H]1CNC(=O)c2cnn3ccc(nc23)N2C[C@H]3C[C@H]3[C@@H]2c2cc(F)cn1c2=O (single isomer, unassigned) [Compound 23-3]
  IC50: < 100 nM

## C[C@H]1CNC(=O)c2cnn3ccc(nc23)N2C[C@@H]3C[C@@H]3[C@H]2c2cc(F)cn1c2=O (single isomer, unassigned) [Compound 23-4]
  IC50: > 1000 nM

## C[C@@H]1CCc2ncc(F)cc2N2CCCN2c2ccn3ncc(c3n2)C(=O)N1 [Compound 1-8, (R,1^3E,1^4E)-3^5-fluoro-6-methyl-7-aza-1(5,3)-pyrazolo[1,5-a]pyrimidine-3(3,2)-pyridina-2(1,2)-pyrazalidinacyclooctaphan-8-one]
  IC50: < 100 nM

## C[C@@H]1CCc2ccccc2N2CCCN2c2ccn3ncc(c3n2)C(=O)N1 [Compound 1-17, (R,1^3E,1^4E)-6-methyl-7-aza-1(5,3)-pyrazolo[1,5-a]pyrimidine-2(1,2)-pyrazolidina-3(1,2)-benzacyclooctaphan-8-one]
  IC50: < 100 nM

## C[C@@H]1CCn2cc(F)cc(c2=O)N2CCCN2c2ccn3ncc(c3n2)C(=O)N1 [Compound 3-3]
  IC50: > 1000 nM

## C[C@@H]1CCOc2ncc(F)cc2N2CCCN2c2ccn3ncc(c3n2)C(=O)N1 [Compound 4-3]
  IC50: < 100 nM

## C[C@@H]1CCc2ncc(F)cc2N2CCC(=O)N2c2ccn3ncc(c3n2)C(=O)N1 [Compound 5-6]
  IC50: 100 to 1000 nM

## C[C@@H]1CCc2ncc(F)cc2N2CC3(CC3)CN2c2ccn3ncc(c3n2)C(=O)N1 [Compound 6-10]
  IC50: < 100 nM

## C[C@@H]1CCc2ncc(F)cc2[C@H]2CCCN2c2ccc3ncc(n3n2)C(=O)N1 [Compound 7-11]
  IC50: < 100 nM

## C[C@@H]1CCc2ncc(F)cc2[C@@H]2CCCN2c2ccc3ncc(n3n2)C(=O)N1 [Compound 7-12]
  IC50: > 1000 nM

## C[C@@H]1/C=C/c2ncc(F)cc2[C@H]2CCCN2c2ccn3ncc(c3n2)C(=O)N1 [Compound 9-7]
  IC50: < 100 nM

## C[C@@H]1/C=C\c2ncc(F)cc2[C@H]2CCCN2c2ccn3ncc(c3n2)C(=O)N1 [Compound 10-5]
  IC50: < 100 nM

## C[C@@H]1/C=C\c2ncc(F)cc2[C@@H]2CCCN2c2ccn3ncc(c3n2)C(=O)N1 [Compound 10-6]
  IC50: 100 to 1000 nM

## C=C1c2ncc(F)cc2[C@@H]2CCCN2c2ccn3ncc(c3n2)C(=O)N[C@@H]1C [Compound 11-5]
  IC50: > 1000 nM

## CC1c2ncc(F)cc2[C@H]2CCCN2c2ccn3ncc(c3n2)C(=O)N[C@@H]1C (some centres unmarked) [Compound 11-6]
  IC50: < 100 nM

## C[C@@H]1CCc2cnc(F)cc2C2CCCN2c2ccc3ncc(n3n2)C(=O)N1 (some centres unmarked) [Compound 12-12]
  IC50: > 1000 nM

## C[C@@H]1CCc2ncncc2[C@H]2CCCN2c2ccc3ncc(n3n2)C(=O)N1 [Compound 13-11]
  IC50: < 100 nM

## C[C@@H]1CCc2ncncc2[C@@H]2CCCN2c2ccc3ncc(n3n2)C(=O)N1 [Compound 13-12]
  IC50: 100 to 1000 nM

## C[C@@H]1CCn2cc(nn2)[C@H]2CCCN2c2ccn3ncc(c3n2)C(=O)N1 [Compound 14-6]
  IC50: > 1000 nM

## C[C@@H]1CCn2cc(nn2)[C@@H]2CCCN2c2ccn3ncc(c3n2)C(=O)N1 [Compound 14-7]
  IC50: > 1000 nM

## C[C@@H]1CCn2nncc2[C@H]2CCCN2c2ccn3ncc(c3n2)C(=O)N1 [Compound 15-10]
  IC50: > 1000 nM

## C[C@@H]1CCc2ncc(F)cc2[C@H]2[C@@H]3[C@H](CN2c2ccn4ncc(c4n2)C(=O)N1)C3(C)C [Compound 17-12]
  IC50: > 1000 nM

## C[C@@H]1CCc2ncc(F)cc2[C@@H]2[C@H]3[C@@H](CN2c2ccn4ncc(c4n2)C(=O)N1)C3(C)C [Compound 17-13]
  IC50: > 1000 nM

## C[C@@H]1CCc2ncc(F)cc2[C@H]2[C@@H]3C[C@@H]3CN2c2ccn3ncc(c3n2)C(=O)N1 [Compound 18-11]
  IC50: < 100 nM

## C[C@@H]1CCc2ncc(F)cc2[C@@H]2[C@H]3C[C@H]3CN2c2ccn3ncc(c3n2)C(=O)N1 [Compound 18-12]
  IC50: > 1000 nM

## O=C1NC2(CCc3ncc(F)cc3[C@H]3[C@@H]4C[C@@H]4CN3c3ccn4ncc1c4n3)CC2 [Compound 19-5]
  IC50: < 100 nM

## O=C1NC2(CCc3ncc(F)cc3[C@@H]3[C@H]4C[C@H]4CN3c3ccn4ncc1c4n3)CC2 [Compound 19-6]
  IC50: > 1000 nM

## O=C1N[C@H](C2CC2)CCc2ncc(F)cc2[C@H]2[C@@H]3C[C@@H]3CN2c2ccn3ncc1c3n2 [Compound 20-5]
  IC50: < 100 nM

## O=C1N[C@H](C2CC2)CCc2ncc(F)cc2[C@@H]2[C@H]3C[C@H]3CN2c2ccn3ncc1c3n2 [Compound 20-6]
  IC50: > 1000 nM

## C[C@H]1CNC(=O)c2cnn3ccc(nc23)N2C[C@H]3C[C@H]3[C@@H]2c2cc(F)cnc2O1 [Compound 22-6]
  IC50: < 100 nM

## C[C@H]1CNC(=O)c2cnn3ccc(nc23)N2C[C@@H]3C[C@@H]3[C@H]2c2cc(F)cnc2O1 [Compound 22-7]
  IC50: > 1000 nM

## C[C@@H]1CCc2ncc(F)cc2[C@H]2[C@H]3[C@@H](CN2c2ccn4ncc(c4n2)C(=O)N1)C3(C)C [Compound 24-10]
  IC50: < 100 nM

## C[C@@H]1CCc2ncc(F)cc2[C@@H]2[C@@H]3[C@H](CN2c2ccn4ncc(c4n2)C(=O)N1)C3(C)C [Compound 24-11]
  IC50: > 1000 nM
